Common to all, as to assay: Competitive isoTOP-ABPP in situ (fragment-treated cells)
Common to all, as to assay type: cell-based

For experiment [1], the target named is T1, cysteines in MDA-MB-231 and Ramos cells (Homo sapiens, UniProt P13667).
T1 sequence (P13667 21-645): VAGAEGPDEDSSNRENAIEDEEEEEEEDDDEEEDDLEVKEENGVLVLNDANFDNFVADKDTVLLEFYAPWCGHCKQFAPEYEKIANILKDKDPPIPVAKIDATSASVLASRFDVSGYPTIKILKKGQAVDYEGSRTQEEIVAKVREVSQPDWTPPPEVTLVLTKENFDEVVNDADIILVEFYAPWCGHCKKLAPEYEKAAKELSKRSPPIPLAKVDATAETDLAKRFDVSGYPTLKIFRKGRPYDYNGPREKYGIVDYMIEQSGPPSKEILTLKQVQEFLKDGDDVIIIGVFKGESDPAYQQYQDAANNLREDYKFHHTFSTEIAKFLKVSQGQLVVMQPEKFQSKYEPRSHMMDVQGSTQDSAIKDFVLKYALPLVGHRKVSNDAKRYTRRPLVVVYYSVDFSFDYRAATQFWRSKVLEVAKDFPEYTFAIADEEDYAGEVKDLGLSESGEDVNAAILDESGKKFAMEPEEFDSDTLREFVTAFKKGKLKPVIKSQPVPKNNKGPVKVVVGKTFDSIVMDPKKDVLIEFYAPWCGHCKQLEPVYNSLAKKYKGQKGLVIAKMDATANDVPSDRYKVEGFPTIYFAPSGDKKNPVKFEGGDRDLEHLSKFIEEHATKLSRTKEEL

Experiment [2] has as its target cysteines in MDA-MB-231 and Ramos cells (Homo sapiens, UniProt P83731).
The target of experiment [3] is T2, cysteines in MDA-MB-231 and Ramos cells (Homo sapiens, UniProt Q13418).
T2 sequence (Q13418 1-452): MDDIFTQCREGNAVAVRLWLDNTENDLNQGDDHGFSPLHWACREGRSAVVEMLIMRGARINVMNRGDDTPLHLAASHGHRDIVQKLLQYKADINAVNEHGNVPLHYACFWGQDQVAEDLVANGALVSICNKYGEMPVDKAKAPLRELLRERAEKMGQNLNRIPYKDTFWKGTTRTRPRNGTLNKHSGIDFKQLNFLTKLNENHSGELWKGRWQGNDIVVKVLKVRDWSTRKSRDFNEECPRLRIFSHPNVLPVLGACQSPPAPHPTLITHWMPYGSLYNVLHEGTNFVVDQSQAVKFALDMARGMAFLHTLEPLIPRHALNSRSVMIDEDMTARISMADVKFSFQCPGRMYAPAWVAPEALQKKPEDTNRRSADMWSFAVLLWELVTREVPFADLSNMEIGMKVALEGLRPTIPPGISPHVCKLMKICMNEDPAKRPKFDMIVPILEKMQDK

The target of experiment [4] is T3, cysteines in MDA-MB-231 and Ramos cells (Homo sapiens, UniProt Q29RF7).
T3 sequence (Q29RF7 1-1337): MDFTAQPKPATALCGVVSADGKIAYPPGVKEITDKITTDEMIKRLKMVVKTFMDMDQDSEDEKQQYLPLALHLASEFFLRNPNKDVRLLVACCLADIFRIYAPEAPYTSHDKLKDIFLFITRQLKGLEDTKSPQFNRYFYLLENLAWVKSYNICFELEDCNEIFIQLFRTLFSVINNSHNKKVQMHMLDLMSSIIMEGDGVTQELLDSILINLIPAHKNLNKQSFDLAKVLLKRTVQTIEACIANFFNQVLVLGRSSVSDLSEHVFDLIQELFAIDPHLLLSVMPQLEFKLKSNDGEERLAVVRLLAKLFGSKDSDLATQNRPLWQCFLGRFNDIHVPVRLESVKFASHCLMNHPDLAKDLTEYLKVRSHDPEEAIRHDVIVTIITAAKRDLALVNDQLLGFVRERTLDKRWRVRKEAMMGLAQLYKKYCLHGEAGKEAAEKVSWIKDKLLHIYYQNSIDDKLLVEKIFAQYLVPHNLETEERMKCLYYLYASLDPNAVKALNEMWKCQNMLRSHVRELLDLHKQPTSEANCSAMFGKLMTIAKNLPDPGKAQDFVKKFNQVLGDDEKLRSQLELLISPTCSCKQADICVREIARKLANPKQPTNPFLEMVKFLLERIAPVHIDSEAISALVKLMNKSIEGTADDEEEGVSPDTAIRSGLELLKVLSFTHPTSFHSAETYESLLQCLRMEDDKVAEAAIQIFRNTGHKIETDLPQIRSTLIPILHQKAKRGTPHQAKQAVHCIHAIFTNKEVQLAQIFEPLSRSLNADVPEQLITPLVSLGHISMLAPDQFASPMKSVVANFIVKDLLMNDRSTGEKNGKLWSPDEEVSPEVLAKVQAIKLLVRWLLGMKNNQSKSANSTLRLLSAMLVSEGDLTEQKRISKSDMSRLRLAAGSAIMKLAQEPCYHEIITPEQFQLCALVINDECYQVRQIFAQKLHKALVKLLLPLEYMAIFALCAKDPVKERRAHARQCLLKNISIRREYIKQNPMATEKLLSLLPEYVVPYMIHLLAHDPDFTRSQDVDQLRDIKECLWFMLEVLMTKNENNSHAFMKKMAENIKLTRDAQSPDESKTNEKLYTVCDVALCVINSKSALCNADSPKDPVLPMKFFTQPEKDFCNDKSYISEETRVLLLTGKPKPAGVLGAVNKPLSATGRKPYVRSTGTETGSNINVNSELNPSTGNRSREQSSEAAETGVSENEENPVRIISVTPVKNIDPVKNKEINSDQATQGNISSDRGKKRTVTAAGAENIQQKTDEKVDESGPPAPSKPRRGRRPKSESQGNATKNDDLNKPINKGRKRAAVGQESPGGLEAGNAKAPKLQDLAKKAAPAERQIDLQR

Experiment [5] concerns the target T4, cysteines in MDA-MB-231 and Ramos cells (Homo sapiens, UniProt Q9Y3A3).
T4 sequence (Q9Y3A3 1-225): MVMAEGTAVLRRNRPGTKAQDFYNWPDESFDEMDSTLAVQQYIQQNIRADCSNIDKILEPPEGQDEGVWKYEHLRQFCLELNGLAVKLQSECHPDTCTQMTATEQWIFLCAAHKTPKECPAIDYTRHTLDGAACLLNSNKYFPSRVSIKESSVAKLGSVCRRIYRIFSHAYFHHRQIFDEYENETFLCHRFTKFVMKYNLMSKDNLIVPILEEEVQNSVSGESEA

Molecules are shown by their SMILES.

Regarding `COc1ccc(C2CC(c3cccs3)=NN2C(=O)CCl)cc1` (centres unmarked) [compound 4], in experiment [1] (100 μM in situ 231), the “isoTOP-ABPP reactivity P13667_C206 PDIA4” value stood at 6.8 and the “isoTOP-ABPP reactivity P13667_C555 PDIA4” value is listed as 9.0. For the same compound, the “isoTOP-ABPP reactivity P83731_C6 RPL24” value in experiment [2] (100 μM in situ 231) is given as 0.7. Moreover, the “isoTOP-ABPP reactivity Q13418_C346 ILK” value in experiment [3] (100 μM in situ 231) came to 0.8. Besides, in experiment [4] (100 μM in situ 231), the “isoTOP-ABPP reactivity Q29RF7_C242 PDS5A” value is listed as 3.0 and the “isoTOP-ABPP reactivity Q29RF7_C532 PDS5A” value is given as 20.0. In addition, the “isoTOP-ABPP reactivity Q9Y3A3_C134 MOB4” value in experiment [5] (100 μM in situ 231) is 1.2.
For `O=C(CCl)Nc1cccc2ncccc12` [compound 51], in experiment [1] (200 μM, insitu, 231), the “isoTOP-ABPP ratio P13667_C206” value is listed as 5.3 and the “isoTOP-ABPP ratio P13667_C555” value was determined as 6.0. For the same compound, the “isoTOP-ABPP ratio Q13418_C346” value in experiment [3] (200 μM, insitu, 231) was determined as 0.8. Also, the “isoTOP-ABPP ratio Q29RF7_C242” value in experiment [4] (200 μM, insitu, 231) is reported as 1.8.
Take `CC1CCc2ccccc2N1C(=O)CCl` (centres unmarked) [compound 45]: in experiment [1] (200 μM, insitu, 231), the “isoTOP-ABPP ratio P13667_C206” value turned out to be 1.9 and the “isoTOP-ABPP ratio P13667_C555” value worked out at 2.6. Moreover, in experiment [2] (200 μM, insitu, 231), the “isoTOP-ABPP ratio P83731_C6” value is given as 1.2. Besides, the “isoTOP-ABPP ratio Q9Y3A3_C134” value in experiment [5] (200 μM, insitu, 231) stood at 2.3.
For the compound `O=C(CCl)NC(=O)NC12CC3CC(CC(C3)C1)C2` [compound 12], in experiment [1] (200 μM, insitu, 231), the “isoTOP-ABPP ratio P13667_C206” value is given as 16.6 and the “isoTOP-ABPP ratio P13667_C555” value stood at 20.0. In experiment [2] (200 μM, insitu, 231), the “isoTOP-ABPP ratio P83731_C6” value was 0.3. For the same compound, the “isoTOP-ABPP ratio Q13418_C346” value in experiment [3] (200 μM, insitu, 231) was 0.6. In addition, the “isoTOP-ABPP ratio, cysteine Q29RF7_C242” value in experiment [4] (200 μM, insitu, 231) was determined as 12.9. For the same compound, the “isoTOP-ABPP ratio Q9Y3A3_C134” value in experiment [5] (200 μM, insitu, 231) is on record as 1.4.
Regarding `O=C(CCl)N1CCN(S(=O)(=O)c2ccccc2F)CC1` [compound 10], the “isoTOP-ABPP ratio P13667_C206” value in experiment [1] (200 μM, insitu, 231) was 3.8. The “isoTOP-ABPP ratio P13667_C555” value turned out to be 3.3 in experiment [1] (200 μM, insitu, 231) and 1.4 in experiment [1] (200 μM, insitu, ramos). Further, the “isoTOP-ABPP ratio P83731_C6” value in experiment [2] (200 μM, insitu, 231) is recorded as 0.4; in experiment [2] (200 μM, insitu, ramos), 2.0. Further, the “isoTOP-ABPP ratio Q13418_C346” value in experiment [3] (200 μM, insitu, 231) was found to be 1.1; in experiment [3] (200 μM, insitu, ramos), 8.3. For the same compound, the “isoTOP-ABPP ratio, cysteine Q29RF7_C532” value in experiment [4] (200 μM, insitu, 231) is on record as 20.0. Moreover, in experiment [5] (200 μM, insitu, 231), the “isoTOP-ABPP ratio Q9Y3A3_C134” value stood at 1.9.
As to `O=C(CCl)N1CCN(CC(=O)N2CCOCC2)CC1` [compound 29], in experiment [1] (200 μM, insitu, ramos), the “isoTOP-ABPP ratio P13667_C206” value is recorded as 1.4 and the “isoTOP-ABPP ratio P13667_C555” value worked out at 1.5. Also, the “isoTOP-ABPP ratio P83731_C6” value in experiment [2] (200 μM, insitu, ramos) is reported as 1.6. In addition, the “isoTOP-ABPP ratio Q9Y3A3_C134” value in experiment [5] (200 μM, insitu, ramos) turned out to be 1.2.
For the compound `CC(C)CCOCCNC(=O)CCl` [compound 27], in experiment [1] (200 μM, insitu, 231), the “isoTOP-ABPP ratio P13667_C206” value came to 1.0 and the “isoTOP-ABPP ratio P13667_C555” value was 1.2. Besides, the “isoTOP-ABPP ratio P83731_C6” value in experiment [2] (200 μM, insitu, 231) came out at 0.4. Besides, in experiment [3] (200 μM, insitu, 231), the “isoTOP-ABPP ratio Q13418_C346” value came out at 0.6. Also, the “isoTOP-ABPP ratio Q29RF7_C242” value in experiment [4] (200 μM, insitu, 231) amounted to 0.9.
`O=C(CCl)N1CCC(Cc2ccccc2)CC1` [compound 9]: in experiment [1] (200 μM, insitu, 231), the “isoTOP-ABPP reactivity P13667_C206 PDIA4” value was determined as 1.1 and the “isoTOP-ABPP reactivity P13667_C555 PDIA4” value is given as 1.4. In addition, in experiment [2] (200 μM, insitu, 231), the “isoTOP-ABPP reactivity P83731_C6 RPL24” value is on record as 4.3. Also, in experiment [3] (200 μM, insitu, 231), the “isoTOP-ABPP reactivity Q13418_C346 ILK” value worked out at 2.7. Also, the “isoTOP-ABPP reactivity Q9Y3A3_C134 MOB4” value in experiment [5] (200 μM, insitu, 231) came to 20.0.

Source of the values: patent US10670605B2, “Cysteine reactive probes and uses thereof” (The Scripps Research Institute, priority 2015, dated 2020).
